# Reference: ChEMBL document CHEMBL3525943, “Regiospecific and stereospecific triangulation of the structures of metabolites formed by sequential metabolism at multiple prochiral centers” (Drug Metab Dispos, 2012)
# Assays:
# [1] = Drug excretion in male Sprague-Dawley rat urine treated with [14C]-AMG 221 at 2 mg/kg, po measured over 24 hrs by LC-MS/HPLC radiometric analysis; format: ADME, organism-based; set-up: dose 2 mg/kg, route oral; conditions: in vivo
# [2] = Retention time of the compound in Sprague-Dawley rat urine treated with [14C]-AMG 221 at 2 mg/kg, po measured over 24 hrs by LC-MS/HPLC radiometric analysis; format: ADME, organism-based; set-up: dose 2 mg/kg, route oral; conditions: in vivo
# [3] = Drug level in Sprague-Dawley rat urine treated with [14C]-AMG 221 at 2 mg/kg, po measured over 24 hrs by LC-MS/HPLC radiometric analysis; format: ADME, organism-based; set-up: dose 2 mg/kg, route oral; conditions: in vivo
# [4] = Drug excretion in female Sprague-Dawley rat urine treated with [14C]-AMG 221 at 2 mg/kg, po measured over 24 hrs by LC-MS/HPLC radiometric analysis; format: ADME, organism-based; set-up: dose 2 mg/kg, route oral; conditions: in vivo
# [5] = tested on: Rattus norvegicus; assay: Total drug recovery in female Sprague-Dawley rat treated with [14C]-AMG 221 at 2 mg/kg, po measured over 48 hrs by liquid scintillation counting analysis; format: ADME, organism-based; set-up: dose 2 mg/kg, route oral; conditions: in vivo
# [6] = Drug excretion in male Sprague-Dawley rat feces treated with [14C]-AMG 221 at 2 mg/kg, po measured over 24 hrs by LC-MS/HPLC radiometric analysis; format: ADME, organism-based; set-up: dose 2 mg/kg, route oral; conditions: in vivo
# [7] = Drug excretion in female Sprague-Dawley rat feces treated with [14C]-AMG 221 at 2 mg/kg, po measured over 24 hrs by LC-MS/HPLC radiometric analysis; format: ADME, organism-based; set-up: dose 2 mg/kg, route oral; conditions: in vivo
# [8] = Retention time of the compound in Beagle dog urine treated with [14C]-AMG 221 at 2 mg/kg, po measured over 24 hrs by LC-MS/HPLC radiometric analysis; format: ADME, organism-based, Canis lupus familiaris; set-up: dose 2 mg/kg, route oral; conditions: in vivo
# [9] = tested on: Liver microsome; assay: Drug level in rat liver microsomes treated with (S)-2-((1S,2S,4R,6R)-6-hydroxybicyclo[2.2.1]heptan-2-ylamino)-5-isopropyl-5-methylthiazol-4(5H)-one at 20 uM preincubated for 5 mins followed by NADPH addition measured after 60 mins by LC-MS/MS analysis; format: ADME; conditions: 1 h
# [10] = tested on: Liver microsome; assay: Retention time of the compound in rat liver microsomes treated with (S)-2-((1S,2S,4R)-bicyclo[2.2.1]heptan-2-ylamino)-5-(2-hydroxypropan-2-yl)-5-methylthiazol-4(5H)-one at 20 uM preincubated for 5 mins followed by NADPH addition measured after 60 mins by LC-MS/MS analysis; format: ADME; conditions: 1 h
# [11] = Drug level in Sprague-Dawley rat feces treated with [14C]AMG221 at 2 mg/kg, po measured over 24 hrs by LC-MS/HPLC radiometric analysis; format: ADME, organism-based; set-up: dose 2 mg/kg, route oral; conditions: in vivo
# [12] = Retention time of the compound in Sprague-Dawley rat feces treated with [14C]-AMG 221 at 2 mg/kg, po measured over 48 hrs by LC-MS/HPLC radiometric analysis; format: ADME, organism-based; set-up: dose 2 mg/kg, route oral; conditions: in vivo
Compound,Drug excretion [1],Retention_time [2],Drug metabolism [3],Drug excretion [4],Drug recovery [5],Drug excretion [6],Drug excretion [7],Retention_time [8],Drug metabolism [9],Retention_time [10],Drug metabolism [11],Retention_time [12]
C[C@@H](CO)[C@]1(C)SC(N[C@H]2C[C@H]3C[C@@H]2[C@H](O)C3)=NC1=O,8.3%,15.1 min,metabolite_detected,24%,0.9%,8.3%,24%,15.1 min,metabolite_detected,15.7 min,,
CC(C)[C@]1(C)SC(N[C@H]2C[C@H]3C[C@@H]2C[C@@H]3OS(=O)(=O)O)=NC1=O,,,,,6%,metabolite_not_detected,6%,,,,metabolite_detected,23.2 min
